Measurements: ChEMBL document CHEMBL4699524 (Bioorg Med Chem Lett, 2020)

How the values were obtained:
in vitro = details: hamster, CHO cells
[1] = Selectivity index, ratio of IC50 for antileishmanial activity against Leishmania major IR-173 promastigotes to IC50 for antileishmanial activity against Leishmania donovani 1S promastigotes incubated for 72 hrs by resazurin dye based assay; type: functional
Leishmania donovani [2] = experiment: Antileishmanial activity against Leishmania donovani 1S promastigotes assessed as inhibition of parasite growth incubated for 72 hrs by resazurin dye based assay; type: functional, organism-based
[3] = Selectivity index, ratio of IC50 for antileishmanial activity against Leishmania major IR-173 promastigotes to IC50 for antileishmanial activity against Leishmania donovani 9515 promastigotes incubated for 72 hrs by resazurin dye based assay; type: functional
CHO = experiment: Cytotoxicity against CHO cells assessed as reduction in cell viability by MTT assay; type: cell-based; details: Cricetulus griseus
[4] = Selectivity index, ratio of IC50 for CHO cells to IC50 for antileishmanial activity against Leishmania donovani 9515 by resazurin dye based assay; type: toxicity; details: hamster, read-out: Ratio IC50
[5] = Selectivity index, ratio of IC50 for CHO cells to IC50 for antileishmanial activity against Leishmania donovani 1S by resazurin dye based assay; type: toxicity; details: hamster, read-out: Ratio IC50
Leishmania major = experiment: Antileishmanial activity against Leishmania major IR-173 promastigotes assessed as inhibition of parasite growth incubated for 72 hrs by resazurin dye based assay; type: functional, organism-based; details: IR-173, 72 h
Plasmodium falciparum [6] = experiment: Antiplasmodial activity against chloroquine-resistant Plasmodium falciparum Dd2 by LDH assay; type: functional, organism-based
Plasmodium falciparum [7] = experiment: Antiplasmodial activity against chloroquine-sensitive Plasmodium falciparum NF54 by LDH assay; type: functional, organism-based
Leishmania donovani [8] = experiment: Antileishmanial activity against Leishmania donovani 9515 promastigotes assessed as inhibition of parasite growth incubated for 72 hrs by resazurin dye based assay; type: functional, organism-based; details: Leishmania donovani, 9515, 72 h
Leishmania donovani [9] = experiment: Potency index, ratio of artemether IC50 to test compound IC50 for antileishmanial activity against Leishmania donovani 1S promastigotes incubated for 72 hrs by resazurin dye based assay; type: functional
Leishmania donovani [10] = experiment: Potency index, ratio of dihydroartemisinin IC50 to test compound IC50 for antileishmanial activity against Leishmania donovani 1S promastigotes incubated for 72 hrs by resazurin dye based assay; type: functional
Leishmania donovani [11] = experiment: Potency index, ratio of artesunate IC50 to test compound IC50 for antileishmanial activity against Leishmania donovani 9515 promastigotes incubated for 72 hrs by resazurin dye based assay; type: functional
Leishmania donovani [12] = experiment: Potency index, ratio of artemether IC50 to test compound IC50 for antileishmanial activity against Leishmania donovani 9515 promastigotes incubated for 72 hrs by resazurin dye based assay; type: functional
Leishmania donovani [13] = experiment: Potency index, ratio of artesunate IC50 to test compound IC50 for antileishmanial activity against Leishmania donovani 1S promastigotes incubated for 72 hrs by resazurin dye based assay; type: functional
Leishmania donovani [14] = experiment: Potency index, ratio of dihydroartemisinin IC50 to test compound IC50 for antileishmanial activity against Leishmania donovani 9515 promastigotes incubated for 72 hrs by resazurin dye based assay; type: functional

SMILES | selectivity ratio (in vitro) | Ratio IC50 [1] | IC50 (Leishmania donovani [2]) | Ratio IC50 [3] | IC50 (CHO) | selectivity ratio [4] | selectivity ratio [5] | IC50 (Leishmania major) | IC50 (Plasmodium falciparum [6]) | IC50 (Plasmodium falciparum [7]) | IC50 (Leishmania donovani [8]) | Ratio IC50 (Leishmania donovani [9]) | Ratio IC50 (Leishmania donovani [10]) | Ratio IC50 (Leishmania donovani [11]) | Ratio IC50 (Leishmania donovani [12]) | Ratio IC50 (Leishmania donovani [13]) | Ratio IC50 (Leishmania donovani [14])
C[C@@H]1CC[C@H]2C(C)(C=O)O[C@@H]3O[C@@]4(C)CC[C@@H]1[C@]32OO4 (stereo partly specified) | 4 | 3 | 8070 nM | 3 | > 100000 nM | 13 | > 39 | 26600 nM | 4.1 nM | 6.9 nM | 2550 nM |  |  |  |  |  | 
C[C@@H]1CC[C@H]2C(C)(COC(=O)c3ccc(-c4ccccc4)cc3)O[C@@H]3O[C@@]4(C)CC[C@@H]1[C@]32OO4 (stereo partly specified) | 10 |  | 4420 nM |  | > 100000 nM | 23 | > 36 | 9870 nM | 6.9 nM | 7.3 nM | 2800 nM | 30 | 30 | 30 | 30 | 30 | 30
